Data set [1] is described as follows: Stability in human serum, read out as retained inhibition of HT1080 matrigel invasion. The following applies: pre-incubated at 10^−3 M in human serum 18 hr at 37 °C; tested at 10 nM on HT1080 matrigel invasion, Boyden chambers, 6 hr; three experiments in triplicate. The format is in vitro ADME. The procedure:
A major limitation of peptides for use as therapeutics is susceptibility to degradation by serum proteases. The stability of RI-3 in bovine and human serum was investigated by comparing inhibitory activities of RI-3 and RI-3 pre-incubated at 10^−3 M with serum for 18 hr at 37 °C on cell migration and invasion. HT1080 cells were allowed to migrate for 18 hr toward DMEM (CTRL), 10% FBS (None), 10% FBS plus 10 nM RI-3 or 10% FBS with 10 nM RI-3 pre-incubated in bovine serum. […] The stability of RI-3 in human serum was investigated in cell invasion experiments performed in Boyden chambers. […]
(a) HT1080 cells were allowed to migrate in real time for 18 hr toward DMEM (CTRL), or 10% FBS in the absence (None) or the presence of 10 nM RI-3 or 10 nM RI-3 pre-incubated at 10^−3 M in bovine serum for 18 hr at 37 °C. […] The basal value assessed in the absence of FBS (CTRL) was taken as 100% and all values were reported relative to that. Data are the means ± SD three independent experiments, performed in triplicate. *Indicates statistical significance calculated against None, with *P < 0.05, **P < 0.0001. (c) Cell proliferation of HT1080 cells assessed by MTS assay. […] At the indicated times, the absorbance of adherent cells was assessed with a microplate reader. […]

Data set [2] relates to Sarc cells. The data set is described as follows: Growth, vascularization and circulating tumor cells of subcutaneous Sarc tumors in nude mice. The format is in vivo, Foxn1nu/nu female nude mice. As to conditions: 6 mg/Kg i.p. every day for 10 days. The procedure:
To evaluate the effect of RI-3 on tumor growth and vascularization, Sarc cells were injected, as a single-cell suspension (1 × 10^6 cells in 100 µl of sterile PBS, 97% viability), subcutaneously in the flanks of sixteen six-eight weeks old, Foxn1nu/nu female nude mice (Harlan). Animals were randomized into two 8-mice groups with the treatment group receiving 6 mg/kg RI-3 by intra-peritoneal injection every 24 hr, and the control group receiving an equivalent injected volume of vehicle (PBS) only. Time-dependent average weight was monitored every two days. The length and the width of tumors were measured at different time points with a calliper and volumes were calculated using the formula: ½ × (width)[2] × length (mm). After 10 days, blood samples (at least 500 µL/mouse) from the retro-orbital venous plexus of mice anesthetized with 1% isoflurane were collected using a heparinized capillary tube and processed for determination of the Circulating Tumor Cells (CTCs). Then, the animals were sacrificed, the excised tumors were fixed in buffered formalin and processed for paraffin sectioning. Tumor vascularization was assessed by counting vascular channels harbouring red blood cells on CD31 immuno-stained sections in 5 randomly chosen fields per section, in at least two sections per tumor at x 200 as described. Two additional experiments were carried out with the same experimental design by injecting GFP-tagged Sarc cells (1 × 10^6 cells/mouse) subcutaneously in the flanks of twenty-five six-eight weeks old, Foxn1nu/nu female nude mice (Harlan). Animals were treated with 6 mg/kg RI-3, 6 mg/kg RERF or vehicle by intra-peritoneal injection every 24 hr for 10 or 12 days. Tumor growth and the appearance of positive tumor lesions near tumors and in lungs were monitored as brightly visualized by GFP fluorescence with a MacroFluo fluorescence stereomicroscope (Leica). We searched for the presence of GFP-positive nodules on the entire surface of freshly isolated lungs. Lungs were also sliced at approximately 3-mm thickness to examine the parenchyma in depth, and the positive nodules were acquired at higher magnification.
To quantify CTCs, DNA from nucleated cells of murine blood samples (500 μl/mouse) was extracted using the QIAamp DNA Mini Kit (Qiagen), according to the manufacturer’s protocol. Quantitative RT-PCR (7900 HT Fast Real-Time PCR System, Applied Biosystems) was performed using 18 ng DNA and the SYBR Select Master Mix (Applied Biosystems) as described. Primers to human Alu-sequences [FW 5′-[…]-3′/RV 5′-CCCAGGCTGGAGTGCAGT-3′] were employed to a final concentration of 0.5 μM. The number of CTCs was calculated by comparing the obtained Ct with a standard amplification curve generated in spiking experiments (1 to 50 cells were collected by pipetting under microscopic control) which were included in every run. DNA from murine blood was included as a negative control.

[ ]: non-standard residue; d: D form. Aib = CC(C)(N)C(=O)O

The source of these data is publication PMC5430962, “Retro-inverso Urokinase Receptor Antagonists for the Treatment of Metastatic Sarcomas” (Scientific Reports, 2017).

“Ac-[dY][dR][Aib][dR]-NH2 (SMILES CC(=O)N[C@H](Cc1ccc(O)cc1)C(=O)N[C@H](CCCNC(=N)N)C(=O)NC(C)(C)C(=O)N[C@H](CCCNC(=N)N)C(N)=O) [RI-3]”: the “inhibitory activity retained after pre-incubation with human serum” value in data set [1] is on record as 81%. Further, in data set [2], the “intra-tumoral microvessel density (CD31) vs vehicle-treated mice” value is on record as “a reduced microvessel density” and the “treated mice in which no CTCs were detected” value is reported as 4/8. For the same substance, the “body weight vs vehicle-treated mice” value in data set [2] (eight mice) is on record as “comparable”. Also, the “volume of tumors after 10 days” value in data set [2] (eight mice, vehicle 330 +/− 163) is recorded as 185 +/− 82 mm^3. Also, the “circulating tumor cells in blood of CTC-positive mice” value in data set [2] (Alu Real-Time PCR, vehicle 10.04 +/− 3.7 in 8/8 mice) is recorded as 2.6 +/− 2.7 CTCs/mL.
